Tests used:
Protein binding = details: mouse
KIT(V559D,T670I) = target: T1, KIT(V559D,T670I) (Homo sapiens, UniProt P10721, T670I/V559D); assay: KINOMEscan; type: binding; details: read-out: %Ctrl @ 10000nM
T1 construct: purchased DiscoverX KINOMEscan

EPHB6 = target: T2, EPHB6 (Homo sapiens, UniProt O15197); assay: KINOMEscan; type: binding; details: read-out: %Ctrl @ 10000nM
T2 construct: purchased DiscoverX KINOMEscan

TRPM6 = target: T3, TRPM6 (Homo sapiens, UniProt Q9BX84); assay: KINOMEscan; type: binding; details: read-out: %Ctrl @ 10000nM
T3 construct: DNA label for qPCR (T7 phage fusion or DNA tag); purchased DiscoverX scanMAX; host or cells: E. coli BL21-derived (T7 phage) or HEK-293

TIE1 = target: T4, TIE1 (Homo sapiens, UniProt P35590); assay: KINOMEscan; type: binding; details: read-out: %Ctrl @ 10000nM
T4 construct: purchased DiscoverX KINOMEscan
T4 sequence (P35590 22-1138): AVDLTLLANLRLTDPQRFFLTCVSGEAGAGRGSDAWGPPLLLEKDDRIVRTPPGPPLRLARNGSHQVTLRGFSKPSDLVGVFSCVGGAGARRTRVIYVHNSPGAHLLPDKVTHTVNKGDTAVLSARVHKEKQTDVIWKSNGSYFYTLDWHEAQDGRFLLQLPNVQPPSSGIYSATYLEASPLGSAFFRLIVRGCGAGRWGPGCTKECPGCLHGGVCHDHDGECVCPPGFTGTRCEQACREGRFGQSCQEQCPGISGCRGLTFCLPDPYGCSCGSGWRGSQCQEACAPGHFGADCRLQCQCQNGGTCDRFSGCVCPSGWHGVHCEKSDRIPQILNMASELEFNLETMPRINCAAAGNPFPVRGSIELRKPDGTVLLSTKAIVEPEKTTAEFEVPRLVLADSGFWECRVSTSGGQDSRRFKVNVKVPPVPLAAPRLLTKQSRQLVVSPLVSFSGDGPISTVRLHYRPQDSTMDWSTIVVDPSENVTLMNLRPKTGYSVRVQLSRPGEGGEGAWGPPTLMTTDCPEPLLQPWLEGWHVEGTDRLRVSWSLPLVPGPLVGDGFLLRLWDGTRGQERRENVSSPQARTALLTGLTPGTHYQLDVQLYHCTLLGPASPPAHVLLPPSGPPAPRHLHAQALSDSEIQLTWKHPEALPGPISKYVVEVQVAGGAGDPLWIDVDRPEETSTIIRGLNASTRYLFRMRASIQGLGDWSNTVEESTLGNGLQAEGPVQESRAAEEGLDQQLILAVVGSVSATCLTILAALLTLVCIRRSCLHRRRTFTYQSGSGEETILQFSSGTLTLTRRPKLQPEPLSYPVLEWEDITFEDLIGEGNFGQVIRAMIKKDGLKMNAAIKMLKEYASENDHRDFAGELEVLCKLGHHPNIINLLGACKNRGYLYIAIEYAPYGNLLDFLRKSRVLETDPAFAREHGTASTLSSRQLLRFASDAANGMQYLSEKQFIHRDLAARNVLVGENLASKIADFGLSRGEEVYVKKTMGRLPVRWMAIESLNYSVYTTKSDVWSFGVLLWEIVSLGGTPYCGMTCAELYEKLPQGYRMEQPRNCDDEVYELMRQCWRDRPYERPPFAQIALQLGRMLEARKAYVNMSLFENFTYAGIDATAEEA

ROS1 = target: T5, ROS1 (Homo sapiens, UniProt P08922); assay: KINOMEscan; type: binding; details: read-out: %Ctrl @ 10000nM
T5 construct: purchased DiscoverX KINOMEscan

NEK1 = target: T6, NEK1 (Homo sapiens, UniProt Q96PY6); assay: KINOMEscan; type: binding; details: read-out: %Ctrl @ 10000nM
T6 construct: purchased DiscoverX KINOMEscan

NDR1 = target: T7, NDR1 (Homo sapiens, UniProt Q15208); assay: KINOMEscan; type: binding; details: read-out: %Ctrl @ 10000nM
T7 construct: purchased DiscoverX KINOMEscan
T7 sequence (Q15208 whole entry): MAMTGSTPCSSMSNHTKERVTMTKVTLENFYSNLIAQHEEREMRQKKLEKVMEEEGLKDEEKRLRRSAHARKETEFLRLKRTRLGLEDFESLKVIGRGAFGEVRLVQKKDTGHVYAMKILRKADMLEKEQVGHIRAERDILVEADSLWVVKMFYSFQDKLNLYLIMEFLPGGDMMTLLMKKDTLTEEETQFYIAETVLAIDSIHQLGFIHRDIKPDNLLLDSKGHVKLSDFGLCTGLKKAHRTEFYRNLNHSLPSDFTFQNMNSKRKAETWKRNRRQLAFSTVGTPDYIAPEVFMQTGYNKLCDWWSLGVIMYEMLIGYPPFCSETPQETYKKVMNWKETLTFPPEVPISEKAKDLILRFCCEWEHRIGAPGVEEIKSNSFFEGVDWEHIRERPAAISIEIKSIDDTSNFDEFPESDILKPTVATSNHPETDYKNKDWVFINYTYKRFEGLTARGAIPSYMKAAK

[1] = system: 72 cellular proteins known to cause off-target effects; assay: SAFETYscan off-target panel; details: 1 and 10 μM
HUNK = target: T8, HUNK (Homo sapiens, UniProt P57058); assay: KINOMEscan; type: binding; details: read-out: %Ctrl @ 10000nM
T8 construct: purchased DiscoverX KINOMEscan
T8 sequence (P57058 whole entry): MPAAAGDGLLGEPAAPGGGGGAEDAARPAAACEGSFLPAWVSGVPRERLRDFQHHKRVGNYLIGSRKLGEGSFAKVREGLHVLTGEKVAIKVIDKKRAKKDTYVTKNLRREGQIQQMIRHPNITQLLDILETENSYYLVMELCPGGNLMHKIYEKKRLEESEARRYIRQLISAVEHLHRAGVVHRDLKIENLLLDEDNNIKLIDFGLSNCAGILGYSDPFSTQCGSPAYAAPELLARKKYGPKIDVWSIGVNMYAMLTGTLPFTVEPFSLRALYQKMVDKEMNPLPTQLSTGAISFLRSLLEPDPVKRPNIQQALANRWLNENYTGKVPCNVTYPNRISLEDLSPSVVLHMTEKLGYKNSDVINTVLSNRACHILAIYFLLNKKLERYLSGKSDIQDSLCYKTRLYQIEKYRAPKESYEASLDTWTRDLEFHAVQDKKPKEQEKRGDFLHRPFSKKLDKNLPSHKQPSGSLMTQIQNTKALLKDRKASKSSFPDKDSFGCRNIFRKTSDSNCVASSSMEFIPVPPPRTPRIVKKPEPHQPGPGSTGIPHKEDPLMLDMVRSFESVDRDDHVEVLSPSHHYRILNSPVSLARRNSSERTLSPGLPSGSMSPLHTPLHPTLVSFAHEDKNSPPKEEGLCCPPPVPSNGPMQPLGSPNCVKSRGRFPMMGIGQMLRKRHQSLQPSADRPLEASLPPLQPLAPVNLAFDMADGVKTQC

CSNK2A2 = target: T9, CSNK2A2 (Homo sapiens, UniProt P19784); assay: KINOMEscan; type: binding; details: read-out: %Ctrl @ 10000nM
T9 construct: purchased DiscoverX KINOMEscan

MAP4K3 = target: T10, MAP4K3 (Homo sapiens, UniProt Q8IVH8); assay: KINOMEscan; type: binding; details: read-out: %Ctrl @ 10000nM
T10 construct: purchased DiscoverX KINOMEscan

[2] = target: T11, ABL1(F317L)-nonphosphorylated (Homo sapiens, UniProt P00519, F317L); assay: KINOMEscan; type: binding; details: read-out: %Ctrl @ 10000nM
T11 construct: purchased DiscoverX KINOMEscan

PHKG2 = target: T12, PHKG2 (Homo sapiens, UniProt P15735); assay: KINOMEscan; type: binding; details: read-out: %Ctrl @ 10000nM
T12 construct: purchased DiscoverX KINOMEscan

PFTAIRE2 = target: T13, PFTAIRE2 (Homo sapiens, UniProt Q96Q40); assay: KINOMEscan; type: binding; details: read-out: %Ctrl @ 10000nM
T13 construct: purchased DiscoverX KINOMEscan
T13 sequence (Q96Q40 whole entry): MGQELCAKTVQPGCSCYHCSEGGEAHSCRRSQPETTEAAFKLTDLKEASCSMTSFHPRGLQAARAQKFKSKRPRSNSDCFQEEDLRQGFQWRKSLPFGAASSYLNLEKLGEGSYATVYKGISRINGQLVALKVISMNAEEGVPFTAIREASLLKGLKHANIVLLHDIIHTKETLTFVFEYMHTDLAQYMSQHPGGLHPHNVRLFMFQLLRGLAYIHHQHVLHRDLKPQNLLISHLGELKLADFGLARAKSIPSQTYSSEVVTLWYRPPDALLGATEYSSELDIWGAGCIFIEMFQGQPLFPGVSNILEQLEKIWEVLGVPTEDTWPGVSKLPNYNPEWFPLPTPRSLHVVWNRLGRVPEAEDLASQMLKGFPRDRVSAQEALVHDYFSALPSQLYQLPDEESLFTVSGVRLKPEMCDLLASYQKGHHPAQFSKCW

MEK2 = target: T14, MEK2 (Homo sapiens, UniProt P36507); assay: KINOMEscan; type: binding; details: read-out: %Ctrl @ 10000nM
T14 construct: purchased DiscoverX KINOMEscan

RIPK5 = target: T15, RIPK5 (Homo sapiens, UniProt Q6XUX3); assay: KINOMEscan; type: binding; details: read-out: %Ctrl @ 10000nM
T15 construct: purchased DiscoverX KINOMEscan

ABL1-nonphosphorylated = target: T16, ABL1-nonphosphorylated (Homo sapiens, UniProt P00519); assay: KINOMEscan; type: binding; details: read-out: %Ctrl @ 10000nM
T16 construct: purchased DiscoverX KINOMEscan

BIKE = target: T17, BIKE (Homo sapiens, UniProt Q9NSY1); assay: KINOMEscan; type: binding; details: read-out: %Ctrl @ 10000nM
T17 construct: purchased DiscoverX KINOMEscan

DCAMKL3 = target: T18, DCAMKL3 (Homo sapiens, UniProt Q9C098); assay: KINOMEscan; type: binding; details: read-out: %Ctrl @ 10000nM
T18 construct: purchased DiscoverX KINOMEscan

JNK3 = target: T19, JNK3 (Homo sapiens, UniProt P53779); assay: KINOMEscan; type: binding; details: read-out: %Ctrl @ 10000nM
T19 construct: purchased DiscoverX KINOMEscan
T19 sequence (P53779 whole entry): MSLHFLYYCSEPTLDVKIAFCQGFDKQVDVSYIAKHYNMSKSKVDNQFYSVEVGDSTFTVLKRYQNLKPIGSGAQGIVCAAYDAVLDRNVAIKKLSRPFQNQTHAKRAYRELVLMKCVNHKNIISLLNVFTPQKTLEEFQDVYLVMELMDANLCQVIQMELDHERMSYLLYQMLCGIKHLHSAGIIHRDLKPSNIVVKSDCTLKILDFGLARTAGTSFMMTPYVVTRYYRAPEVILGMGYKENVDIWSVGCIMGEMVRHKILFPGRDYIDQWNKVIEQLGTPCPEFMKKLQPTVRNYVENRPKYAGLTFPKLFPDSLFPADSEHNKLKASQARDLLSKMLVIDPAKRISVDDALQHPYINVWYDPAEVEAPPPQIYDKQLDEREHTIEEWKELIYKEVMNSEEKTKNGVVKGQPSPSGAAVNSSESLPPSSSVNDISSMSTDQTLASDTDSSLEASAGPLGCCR

NEK11 = target: T20, NEK11 (Homo sapiens, UniProt Q8NG66); assay: KINOMEscan; type: binding; details: read-out: %Ctrl @ 10000nM
T20 construct: purchased DiscoverX KINOMEscan

MLCK = target: T21, MLCK (Homo sapiens, UniProt Q32MK0); assay: KINOMEscan; type: binding; details: read-out: %Ctrl @ 10000nM
T21 construct: purchased DiscoverX KINOMEscan

SRPK1 = target: T22, SRPK1 (Homo sapiens, UniProt Q96SB4); assay: KINOMEscan; type: binding; details: read-out: %Ctrl @ 10000nM
T22 construct: purchased DiscoverX KINOMEscan

TAK1 = target: T23, TAK1 (Homo sapiens, UniProt O43318); assay: KINOMEscan; type: binding; details: read-out: %Ctrl @ 10000nM
T23 construct: purchased DiscoverX KINOMEscan
T23 sequence (O43318 whole entry): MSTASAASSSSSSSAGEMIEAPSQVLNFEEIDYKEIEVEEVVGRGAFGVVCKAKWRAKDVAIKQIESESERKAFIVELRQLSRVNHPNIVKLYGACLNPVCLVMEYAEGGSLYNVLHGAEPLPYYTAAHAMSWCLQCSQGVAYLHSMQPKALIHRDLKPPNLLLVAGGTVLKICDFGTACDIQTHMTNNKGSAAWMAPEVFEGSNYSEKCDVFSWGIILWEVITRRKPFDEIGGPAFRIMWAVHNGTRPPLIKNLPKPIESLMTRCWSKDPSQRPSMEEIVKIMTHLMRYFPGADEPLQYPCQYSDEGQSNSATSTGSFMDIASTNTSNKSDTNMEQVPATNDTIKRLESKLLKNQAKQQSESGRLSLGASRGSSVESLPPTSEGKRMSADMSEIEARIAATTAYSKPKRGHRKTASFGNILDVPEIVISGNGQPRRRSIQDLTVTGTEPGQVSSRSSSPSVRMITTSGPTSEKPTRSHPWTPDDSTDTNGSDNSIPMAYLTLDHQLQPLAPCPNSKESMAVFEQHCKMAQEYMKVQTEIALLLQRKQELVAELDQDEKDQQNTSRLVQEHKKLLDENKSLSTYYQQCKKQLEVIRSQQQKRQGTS

LRRK2(G2019S) = target: T24, LRRK2(G2019S) (Homo sapiens, UniProt Q5S007, G2019S); assay: KINOMEscan; type: binding; details: read-out: %Ctrl @ 10000nM
T24 construct: purchased DiscoverX KINOMEscan

[3] = target: T25, ABL1(T315I)-phosphorylated (Homo sapiens, UniProt P00519, T315I); assay: KINOMEscan; type: binding; details: read-out: %Ctrl @ 10000nM
T25 construct: purchased DiscoverX KINOMEscan

PIP5K1C = target: T26, PIP5K1C (Homo sapiens, UniProt O60331); assay: KINOMEscan; type: binding; details: read-out: %Ctrl @ 10000nM
T26 construct: purchased DiscoverX KINOMEscan

FGFR4 = target: T27, FGFR4 (Homo sapiens, UniProt P22455); assay: KINOMEscan; type: binding; details: read-out: %Ctrl @ 10000nM
T27 construct: purchased DiscoverX KINOMEscan

PFTK1 = target: T28, PFTK1 (Homo sapiens, UniProt O94921); assay: KINOMEscan; type: binding; details: read-out: %Ctrl @ 10000nM
T28 construct: purchased DiscoverX KINOMEscan
T28 sequence (O94921 whole entry): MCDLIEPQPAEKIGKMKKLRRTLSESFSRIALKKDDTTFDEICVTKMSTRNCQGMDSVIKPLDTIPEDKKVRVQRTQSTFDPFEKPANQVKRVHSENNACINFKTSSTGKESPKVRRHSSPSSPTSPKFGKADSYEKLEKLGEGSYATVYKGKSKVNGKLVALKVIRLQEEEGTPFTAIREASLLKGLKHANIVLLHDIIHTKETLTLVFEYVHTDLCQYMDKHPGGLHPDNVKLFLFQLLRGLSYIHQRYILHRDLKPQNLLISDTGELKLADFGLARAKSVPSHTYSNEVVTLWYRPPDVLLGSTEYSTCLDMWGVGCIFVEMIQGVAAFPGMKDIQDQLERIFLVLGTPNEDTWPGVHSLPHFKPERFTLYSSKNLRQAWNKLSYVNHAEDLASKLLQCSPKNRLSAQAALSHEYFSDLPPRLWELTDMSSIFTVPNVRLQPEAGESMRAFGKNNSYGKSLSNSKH

SRMS = target: T29, SRMS (Homo sapiens, UniProt Q9H3Y6); assay: KINOMEscan; type: binding; details: read-out: %Ctrl @ 10000nM
T29 construct: purchased DiscoverX KINOMEscan

TRKB = target: T30, TRKB (Homo sapiens, UniProt Q16620); assay: KINOMEscan; type: binding; details: read-out: %Ctrl @ 10000nM
T30 construct: purchased DiscoverX KINOMEscan

FGR = target: T31, FGR (Homo sapiens, UniProt P09769); assay: KINOMEscan; type: binding; details: read-out: %Ctrl @ 10000nM
T31 construct: purchased DiscoverX KINOMEscan

CSNK1G3 = target: T32, CSNK1G3 (Homo sapiens, UniProt Q9Y6M4); assay: KINOMEscan; type: binding; details: read-out: %Ctrl @ 10000nM
T32 construct: purchased DiscoverX KINOMEscan
T32 sequence (Q9Y6M4 whole entry): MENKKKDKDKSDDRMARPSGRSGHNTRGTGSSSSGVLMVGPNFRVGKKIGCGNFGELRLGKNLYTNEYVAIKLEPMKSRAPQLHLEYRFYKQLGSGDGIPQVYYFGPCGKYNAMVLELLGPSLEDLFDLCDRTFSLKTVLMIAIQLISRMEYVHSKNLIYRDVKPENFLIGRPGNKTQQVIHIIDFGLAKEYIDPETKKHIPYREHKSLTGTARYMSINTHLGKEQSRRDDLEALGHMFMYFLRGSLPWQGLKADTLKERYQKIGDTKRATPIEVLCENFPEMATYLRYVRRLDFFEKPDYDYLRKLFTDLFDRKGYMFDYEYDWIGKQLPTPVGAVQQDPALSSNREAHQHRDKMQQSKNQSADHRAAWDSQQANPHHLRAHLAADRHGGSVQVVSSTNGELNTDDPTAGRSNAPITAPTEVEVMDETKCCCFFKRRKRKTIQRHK

NEK10 = target: T33, NEK10 (Homo sapiens, UniProt Q6ZWH5); assay: KINOMEscan; type: binding; details: read-out: %Ctrl @ 10000nM
T33 construct: purchased DiscoverX KINOMEscan

p38-alpha = target: T34, p38-alpha (Homo sapiens, UniProt Q16539); assay: KINOMEscan; type: binding; details: read-out: %Ctrl @ 10000nM
T34 construct: purchased DiscoverX KINOMEscan

NEK9 = target: T35, NEK9 (Homo sapiens, UniProt Q8TD19); assay: KINOMEscan; type: binding; details: read-out: %Ctrl @ 10000nM
T35 construct: purchased DiscoverX KINOMEscan

EIF2AK1 = target: T36, EIF2AK1 (Homo sapiens, UniProt Q9BQI3); assay: KINOMEscan; type: binding; details: read-out: %Ctrl @ 10000nM
T36 construct: purchased DiscoverX KINOMEscan

EGFR(L858R) = target: T37, EGFR(L858R) (Homo sapiens, UniProt P00533, L858R); assay: KINOMEscan; type: binding; details: read-out: %Ctrl @ 10000nM
T37 construct: purchased DiscoverX KINOMEscan

FLT3-autoinhibited = target: T38, FLT3-autoinhibited (Homo sapiens, UniProt P36888); assay: KINOMEscan; type: binding; details: read-out: %Ctrl @ 10000nM
T38 construct: purchased DiscoverX KINOMEscan

PIK3CB = target: T39, PIK3CB (Homo sapiens, UniProt P42338); assay: KINOMEscan; type: binding; details: read-out: %Ctrl @ 10000nM
T39 construct: purchased DiscoverX KINOMEscan

GSK3B = target: T40, GSK3B (Homo sapiens, UniProt P49841); assay: KINOMEscan; type: binding; details: read-out: %Ctrl @ 10000nM
T40 construct: purchased DiscoverX KINOMEscan

PRKCI = target: T41, PRKCI (Homo sapiens, UniProt P41743); assay: KINOMEscan; type: binding; details: read-out: %Ctrl @ 10000nM
T41 construct: purchased DiscoverX KINOMEscan

In the case of `CC(C)c1ccc(CC(=O)N2CCN(c3ccc(C#N)nn3)CC2)cc1` [PZ-2891, 6-(4-(2-(4-isopropylphenyl)acetyl)piperazin-1-yl)pyridazine-3-carbonitrile], the fraction unbound (Protein binding) is reported as 0.08, the remaining binding at 10 µM (KIT(V559D,T670I)) is reported as 94% and the remaining binding at 10 µM (EPHB6) is reported as 68%. The remaining binding at 10 µM (TRPM6) was 98%, the remaining binding at 10 µM (TIE1) was 85% and the remaining binding at 10 µM (ROS1) was 81%. The remaining binding at 10 µM (NEK1) was 100%, the remaining binding at 10 µM (NDR1) was 75% and the off-target pharmacological interactions [1] was “absence of off-target pharmacological interactions”. The remaining binding at 10 µM (HUNK) was 100%, the remaining binding at 10 µM (CSNK2A2) was 88% and the remaining binding at 10 µM (MAP4K3) was 94%. The remaining binding at 10 µM [2] was 73%, the remaining binding at 10 µM (PHKG2) was 100% and the remaining binding at 10 µM (PFTAIRE2) was 99%. For the same compound, the remaining binding at 10 µM (MEK2) was 80%, the remaining binding at 10 µM (RIPK5) was 77% and the remaining binding at 10 µM (ABL1-nonphosphorylated) was 65%. The remaining binding at 10 µM (BIKE) was 100%, the remaining binding at 10 µM (DCAMKL3) was 84% and the remaining binding at 10 µM (JNK3) was 88%. For the same compound, the remaining binding at 10 µM (NEK11) was 99%, the remaining binding at 10 µM (MLCK) was 100% and the remaining binding at 10 µM (SRPK1) was 100%. For the same compound, the remaining binding at 10 µM (TAK1) was 67%, the remaining binding at 10 µM (LRRK2(G2019S)) was 100% and the remaining binding at 10 µM [3] was 97%. For the same compound, the remaining binding at 10 µM (PIP5K1C) was 100%, the remaining binding at 10 µM (FGFR4) was 73% and the remaining binding at 10 µM (PFTK1) was 92%. For the same compound, the remaining binding at 10 µM (SRMS) was 72%, the remaining binding at 10 µM (TRKB) was 100% and the remaining binding at 10 µM (FGR) was 96%. It also gave a remaining binding at 10 µM (CSNK1G3) of 80%, a remaining binding at 10 µM (NEK10) of 89% and a remaining binding at 10 µM (p38-alpha) of 100%. It also gave a remaining binding at 10 µM (NEK9) of 96%, a remaining binding at 10 µM (EIF2AK1) of 95% and a remaining binding at 10 µM (EGFR(L858R)) of 84%. It also gave a remaining binding at 10 µM (FLT3-autoinhibited) of 82%, a remaining binding at 10 µM (PIK3CB) of 65% and a remaining binding at 10 µM (GSK3B) of 74%. It also gave a remaining binding at 10 µM (PRKCI) of 83%.

From article PMC6199309, “A therapeutic approach to pantothenate kinase associated neurodegeneration” (Nature Communications, 2018)
